One may read the DC50 as the concentration at which degradation of the target reaches its halfway point. The low end stands for a more potent degrader, the high end for a less potent degrader.

The structures appear in SMILES notation. Bounds are passed on as bounds.

Results on 13 compounds are retold here after patent publication US20240343733A1, “COMPOUNDS FOR TARGETING DEGRADATION OF IRAK4 PROTEINS” (BIOGEN MA INC., priority 2021, published 2024).

Test [1] has as its target T1, IKZF1 (Homo sapiens, UniProt Q13422).
T1 construct: endogenously expressing IKZF1 with HiBiT fusion tag via CRISPR
The test is described as follows: IKZF1 Degradation Assay, HiBiT Method. The class given is cell-based. Particulars: NCIH929 cells expressing HiBiT-tagged IKZF1, 6 hours, top concentration 10 μM. How it is done:
Assay 2. IKZF1 Degradation Assay, HiBiT Method
Selected compounds of this disclosure were tested in an IKZF1 degradation assay using the HiBiT Method.
RPMI no-phenol red medium and fetal bovine serum (FBS) were purchased from Gibco (Grand Island, NY, USA). Nano-Glo® HiBiT Lytic Assay System was purchased from Promega (Madison, WI, USA). […] Cell culture flasks and 384-well microplates were acquired from VWR (Radnor, PA, USA).
IKZF1 degradation was determined based on quantification of luminescent signal using Nano-Glo® HiBiT Lytic Assay kit. […] NCIH929 cells expressing HiBiT-tagged IKZF1 were added into 384-well plates in RPMI medium containing 10% FBS and 0.05 mM 2-mercaptoethanol at a cell density of 15000 cells per well. The plates were kept at 37° C. with 5% CO2 for 6 hours. Cells treated in the absence of the test compound were the negative control and wells containing media only were the positive control. After 6-hour incubation, Nano-Glo® HiBiT Lytic Assay reagents were added to the designated wells. Luminescence was acquired on EnVision® Multilabel Reader (PerkinElmer, Santa Clara, CA, USA).
On the technique in general: The HiBiT peptide binds its large partner to form an active luciferase.

The target of test [2] is T2, IRAK4 (Homo sapiens, UniProt Q9NWZ3).
T2 construct: 293Tcells expressing HiBiT-tagged IRAK4 were then added into 384-well plates
T2 sequence (Q9NWZ3 1-460): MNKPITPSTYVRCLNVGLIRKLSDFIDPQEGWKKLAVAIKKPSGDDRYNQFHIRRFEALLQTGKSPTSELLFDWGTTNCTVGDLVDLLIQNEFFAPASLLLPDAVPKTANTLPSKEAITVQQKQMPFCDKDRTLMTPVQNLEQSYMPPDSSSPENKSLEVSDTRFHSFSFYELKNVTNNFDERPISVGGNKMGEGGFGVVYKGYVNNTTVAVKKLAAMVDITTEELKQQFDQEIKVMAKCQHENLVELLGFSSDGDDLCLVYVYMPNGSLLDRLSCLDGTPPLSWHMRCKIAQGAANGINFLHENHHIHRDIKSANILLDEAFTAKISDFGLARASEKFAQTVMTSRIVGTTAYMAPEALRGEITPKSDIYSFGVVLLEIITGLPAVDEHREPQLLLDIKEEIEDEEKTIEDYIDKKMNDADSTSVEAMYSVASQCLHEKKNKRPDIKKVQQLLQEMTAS
The experiment in a line: IRAK4 Degradation Assay, HiBiT Method. Type of test: cell-based. To be noted: 293T cells expressing HiBiT-tagged IRAK4, 6 hours. The gist of the method: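 Luminescent read-out with Nano-Glo HiBiT lytic reagent after 6 h compound exposure at 37 °C. Cells were HiBiT-IRAK4 knock-in 293T (C-terminal tag), 10,000 per well. Compounds ran as 11-point half-log dilutions from […] highest dose, duplicate wells; DMSO served as negative control.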

T1 sequence (Q96SW2 whole entry partner, the tested form may be a part): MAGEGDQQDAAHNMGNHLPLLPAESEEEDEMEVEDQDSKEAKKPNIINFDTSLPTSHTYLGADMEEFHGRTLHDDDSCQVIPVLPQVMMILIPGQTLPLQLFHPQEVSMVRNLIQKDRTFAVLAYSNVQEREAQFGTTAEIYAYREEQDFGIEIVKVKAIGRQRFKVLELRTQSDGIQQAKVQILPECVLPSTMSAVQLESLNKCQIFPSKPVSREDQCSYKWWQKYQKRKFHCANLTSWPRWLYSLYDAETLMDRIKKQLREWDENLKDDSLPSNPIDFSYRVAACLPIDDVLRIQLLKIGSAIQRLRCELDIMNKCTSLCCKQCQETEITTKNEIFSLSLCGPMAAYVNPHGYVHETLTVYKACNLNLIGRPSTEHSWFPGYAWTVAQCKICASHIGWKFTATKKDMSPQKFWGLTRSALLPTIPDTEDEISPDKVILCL
T1 sequence (Q16531 whole entry partner, the tested form may be a part): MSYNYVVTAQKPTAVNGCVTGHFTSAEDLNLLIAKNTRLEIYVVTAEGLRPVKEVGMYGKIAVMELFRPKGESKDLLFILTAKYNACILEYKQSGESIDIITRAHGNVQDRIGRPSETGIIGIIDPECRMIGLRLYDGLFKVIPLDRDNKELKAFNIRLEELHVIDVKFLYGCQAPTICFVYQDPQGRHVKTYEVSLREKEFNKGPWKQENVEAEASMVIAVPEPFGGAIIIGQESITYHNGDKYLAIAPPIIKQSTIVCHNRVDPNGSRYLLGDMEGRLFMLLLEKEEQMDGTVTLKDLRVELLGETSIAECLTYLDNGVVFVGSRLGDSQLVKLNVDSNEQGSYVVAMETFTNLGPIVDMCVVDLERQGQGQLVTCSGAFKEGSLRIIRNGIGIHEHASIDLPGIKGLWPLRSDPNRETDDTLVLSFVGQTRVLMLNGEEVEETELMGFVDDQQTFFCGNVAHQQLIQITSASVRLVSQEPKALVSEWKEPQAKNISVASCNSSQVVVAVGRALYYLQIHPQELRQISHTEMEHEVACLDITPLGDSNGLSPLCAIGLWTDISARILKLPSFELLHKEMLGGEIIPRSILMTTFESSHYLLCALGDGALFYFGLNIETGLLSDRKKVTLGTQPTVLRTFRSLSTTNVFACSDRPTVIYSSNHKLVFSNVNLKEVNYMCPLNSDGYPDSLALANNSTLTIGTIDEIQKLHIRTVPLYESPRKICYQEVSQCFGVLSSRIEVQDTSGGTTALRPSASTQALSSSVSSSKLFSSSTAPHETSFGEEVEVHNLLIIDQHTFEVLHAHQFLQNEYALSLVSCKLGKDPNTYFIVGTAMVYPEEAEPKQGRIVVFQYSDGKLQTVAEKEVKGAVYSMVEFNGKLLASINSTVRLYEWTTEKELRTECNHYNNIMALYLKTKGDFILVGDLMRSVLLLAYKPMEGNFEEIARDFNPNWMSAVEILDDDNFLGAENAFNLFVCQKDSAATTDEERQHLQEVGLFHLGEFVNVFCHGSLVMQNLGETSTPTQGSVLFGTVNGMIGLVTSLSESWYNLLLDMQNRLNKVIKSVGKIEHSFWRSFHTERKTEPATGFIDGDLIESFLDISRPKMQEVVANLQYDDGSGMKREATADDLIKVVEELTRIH
T1 sequence (Q13422 whole entry, the tested form may be a part): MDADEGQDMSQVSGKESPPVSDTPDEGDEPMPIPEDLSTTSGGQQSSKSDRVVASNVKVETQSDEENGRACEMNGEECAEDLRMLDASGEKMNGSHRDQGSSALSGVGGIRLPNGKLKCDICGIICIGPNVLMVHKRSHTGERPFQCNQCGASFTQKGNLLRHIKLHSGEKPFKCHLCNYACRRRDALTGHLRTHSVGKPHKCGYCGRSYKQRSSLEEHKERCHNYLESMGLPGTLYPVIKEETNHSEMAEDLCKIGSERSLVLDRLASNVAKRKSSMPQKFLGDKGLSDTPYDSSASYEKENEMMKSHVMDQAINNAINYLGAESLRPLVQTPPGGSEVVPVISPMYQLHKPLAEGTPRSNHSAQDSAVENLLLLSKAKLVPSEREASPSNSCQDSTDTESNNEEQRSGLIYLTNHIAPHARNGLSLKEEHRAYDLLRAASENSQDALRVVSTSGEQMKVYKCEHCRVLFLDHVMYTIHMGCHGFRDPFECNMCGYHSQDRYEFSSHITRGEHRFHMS

With `CC(C)Oc1cc2nc(C3CCN(C(=O)CC4(O)CCN(c5cc(F)c(NC6CCC(=O)NC6=O)cc5F)CC4)CC3)cn2cc1C(=O)Nc1cccc(C(F)F)n1` (centres unmarked) [Example 70, N-[6-(difluoromethyl)-2-pyridyl]-2-[1-[2-[1-[4-[(2,6-dioxo-3-piperidyl)amino]-2,5-difluoro-phenyl]-4-hydroxy-4-piperidyl]acetyl]-4-piperidyl]-7-isopropoxy-imidazo[1,2-a]pyridine-6-carboxamide], the 50% degradation concentration (DC50) in test [1] is greater than 10 µM; in test [2], less than 0.01 µM.

Regarding `CC(C)Oc1cc2nn([C@H]3CC[C@H](CN4CCOC[C@H]4Cc4ccc(OC5CCC(=O)NC5=O)cc4)CC3)cc2cc1C(=O)Nc1cccn([C@H]2C[C@H]2F)c1=O` (stereo partly drawn) [Example 128, 2-((1R,4S)-4-(((3R)-3-(4-((2,6-dioxopiperidin-3-yl)oxy)benzyl)morpholino)methyl)cyclohexyl)-N-(1-((1S,2R)-2-fluorocyclopropyl)-2-oxo-1,2-dihydropyridin-3-yl)-6-isopropoxy-2H-indazole-5-carboxamide], the DC50 in test [1] is greater than 10 µM; in test [2] it was less than 0.01 µM.

Take `CC(C)Oc1cc2nn([C@H]3CC[C@H](CN4CCC(c5ccc6c(c5)n(C)c(=O)n6C5CCC(=O)NC5=O)C(F)(F)C4)CC3)cc2cc1C(=O)Nc1cccn([C@H]2C[C@H]2F)c1=O` (stereo partly drawn) [Example 122, 2-((1r,4S)-4-((4-(1-(2,6-dioxopiperidin-3-yl)-3-methyl-2-oxo-2,3-dihydro-1H-benzo[d]imidazol-5-yl)-3,3-difluoropiperidin-1-yl)methyl)cyclohexyl)-N-(1-((1S,2R)-2-fluorocyclopropyl)-2-oxo-1,2-dihydropyridin-3-yl)-6-isopropoxy-2H-indazole-5-carboxamide]: the DC50 in test [1] is greater than 10 µM; in test [2] it was less than 0.01 µM.

As for `CC(C)Oc1cc2nc(C3CCN(CC(=O)N4CCC(c5ccc(C6(F)CCC(=O)NC6=O)cc5)CC4)CC3)cn2cc1C(=O)Nc1cnn2cccnc12` (centres unmarked) [Example 98, 2-[1-[2-[4-[4-(3-fluoro-2,6-dioxo-3-piperidyl)phenyl]-1-piperidyl]-2-oxo-ethyl]-4-piperidyl]-7-isopropoxy-N-pyrazolo[1,5-a]pyrimidin-3-yl-imidazo[1,2-a]pyridine-6-carboxamide], the results for the DC50 in test [1] and in test [2] were greater than 10 µM and 0.01 to 0.1 µM, respectively.

Take `CC(C)Oc1cc2nc([C@H]3CC[C@H](CN4CCN(c5ccc6c(N7CCC(=O)NC7=O)nn(C)c6c5)CC4)CC3)cn2cc1C(=O)Nc1cccc(C(F)F)n1` [Example 41, N-[6-(difluoromethyl)-2-pyridyl]-2-[4-[[4-[3-(2,4-dioxohexahydropyrimidin-1-yl)-1-methyl-indazol-6-yl]piperazin-1-yl]methyl]cyclohexyl]-7-isopropoxy-imidazo[1,2-a]pyridine-6-carboxamide]: the half-maximal degradation concentration (DC50) in test [1] is greater than 10 µM; in test [2], 0.01 to 0.1 µM.

On to `CC(C)Oc1cc2nn([C@H]3CC[C@H](CNC4CCN(c5ncc(C6CCC(=O)NC6=O)cc5F)CC4)CC3)cc2cc1C(=O)Nc1cccn(C2CC2)c1=O` (some centres unmarked) [Example 125, N-(1-cyclopropyl-2-oxo-1,2-dihydropyridin-3-yl)-2-((1r,4r)-4-(((1-(5-(2,6-dioxopiperidin-3-yl)-3-fluoropyridin-2-yl)piperidin-4-yl)amino)methyl)cyclohexyl)-6-isopropoxy-2H-indazole-5-carboxamide], for which the DC50 was greater than 10 µM in test [1] and less than 0.01 µM in test [2].

For `CC(C)Oc1cc2nn([C@H]3CC[C@H](CN4CCC(c5ccc(OC6CCC(=O)NC6=O)cc5)CC4)CC3)cc2cc1C(=O)Nc1cccn(C2CC2)c1=O` (some centres unmarked) [Example 113, N-(1-cyclopropyl-2-oxo-1,2-dihydropyridin-3-yl)-2-((1r,4r)-4-((4-(4-((2,6-dioxopiperidin-3-yl)oxy)phenyl)piperidin-1-yl)methyl)cyclohexyl)-6-isopropoxy-2H-indazole-5-carboxamide], the DC50 in test [1] was greater than 10 µM; in test [2] it was less than 0.01 µM.

`CC(C)Oc1cc2nn([C@H]3CC[C@H](CN4CCC(c5ccc(OC6CCC(=O)NC6=O)cc5)CC4)CC3)cc2cc1C(=O)Nc1cnn2cccnc12` (some centres unmarked) [Example 115, 2-((1r,4r)-4-((4-(4-((2,6-dioxopiperidin-3-yl)oxy)phenyl)piperidin-1-yl)methyl)cyclohexyl)-6-isopropoxy-N-(pyrazolo[1,5-a]pyrimidin-3-yl)-2H-indazole-5-carboxamide]: the DC50 was greater than 10 µM in test [1] and less than 0.01 µM in test [2].

Turning to `CC(C)Oc1cc2nn([C@H]3CC[C@H](CN4CC5(CCN(c6ncc(C7CCC(=O)NC7=O)cc6F)CC5)C4)CC3)cc2cc1C(=O)Nc1cccn([C@H]2C[C@H]2F)c1=O` (stereo partly drawn) [Example 121, 2-((1r,4S)-4-((7-(5-(2,6-dioxopiperidin-3-yl)-3-fluoropyridin-2-yl)-2,7-diazaspiro[3.5]nonan-2-yl)methyl)cyclohexyl)-N-(1-((1S,2R)-2-fluorocyclopropyl)-2-oxo-1,2-dihydropyridin-3-yl)-6-isopropoxy-2H-indazole-5-carboxamide], the half-maximal degradation concentration (DC50) in test [1] is greater than 10 µM; in test [2], less than 0.01 µM.

For the compound `CC(C)Oc1cc2nc([C@H]3CC[C@H](CN4CCC(c5ccc(OC6CCC(=O)NC6=O)cc5)CC4)CC3)cn2cc1C(=O)Nc1cnn2cccnc12` (some centres unmarked) [Example 50, 2-[4-[[4-[4-[(2,6-dioxo-3-piperidyl)oxy]phenyl]-1-piperidyl]methyl]cyclohexyl]-7-isopropoxy-N-pyrazolo[1,5-a]pyrimidin-3-yl-imidazo[1,2-a]pyridine-6-carboxamide], the DC50 in test [1] was greater than 10 µM; in test [2] it was less than 0.01 µM.

In the case of `CC(C)Oc1cc2nc([C@H]3CC[C@H](CN4CCC(c5cc(F)c(C6CCC(=O)NC6=O)cc5F)C(F)(F)C4)CC3)cn2cc1C(=O)Nc1cnn2cccnc12` (some centres unmarked) [Example 53, 2-[4-[[4-[4-(2,6-dioxo-3-piperidyl)-2,5-difluoro-phenyl]-3,3-difluoro-1-piperidyl]methyl]cyclohexyl]-7-isopropoxy-N-pyrazolo[1,5-a]pyrimidin-3-yl-imidazo[1,2-a]pyridine-6-carboxamide], the 50% degradation concentration (DC50) in test [1] is greater than 10 µM; in test [2], 0.01 to 0.1 µM.

Turning to `CC(C)Oc1cc2nc(C3CCN(C(=O)CC4(O)CCN(c5ccc(NC6CCC(=O)NC6=O)cc5F)CC4)CC3)cn2cc1C(=O)Nc1cccc(C(F)F)n1` (centres unmarked) [Example 69, N-[6-(difluoromethyl)-2-pyridyl]-2-[1-[2-[1-[4-[(2,6-dioxo-3-piperidyl)amino]-2-fluoro-phenyl]-4-hydroxy-4-piperidyl]acetyl]-4-piperidyl]-7-isopropoxy-imidazo[1,2-a]pyridine-6-carboxamide], the half-maximal degradation concentration (DC50) was greater than 10 µM in test [1] and less than 0.01 µM in test [2].

For the compound `CC(C)Oc1cc2nn([C@H]3CC[C@H](CN4CC[C@@H](c5ccc6c(C7CCC(=O)NC7=O)nn(C)c6c5)[C@H](O)C4)CC3)cc2cc1C(=O)Nc1cccn([C@H]2C[C@H]2F)c1=O` (stereo partly drawn) [Example 129, 2-((1S,4S)-4-(((3S,4S)-4-(3-(2,6-dioxopiperidin-3-yl)-1-methyl-1H-indazol-6-yl)-3-hydroxypiperidin-1-yl)methyl)cyclohexyl)-N-(1-((1S,2R)-2-fluorocyclopropyl)-2-oxo-1,2-dihydropyridin-3-yl)-6-isopropoxy-2H-indazole-5-carboxamide], the DC50 was greater than 10 µM in test [1] and less than 0.01 µM in test [2].
